The text below walks through data of PMC12130229, “Inherent fast inactivation particle of Nav channels as a new binding site for a neurotoxin” (The EMBO Journal, 2025).

The target of assay [1] is T1, hNav1.7 (Homo sapiens, UniProt Q15858).
T1 construct: expressed in transfected cells; host or cells: HEK293T
In kind it is cell-based.

For assay [2], the target named is T2, rNav1.8 (Rattus norvegicus, UniProt Q62968).
T2 construct: expressed in transfected cells; host or cells: ND7/23
The experiment in a line: Patch clamp, intracellular KIFMK: block of current density (Fig 6E,F). In kind it is cell-based. As to conditions: Fig 6F.

T1 sequence (Q15858 whole entry): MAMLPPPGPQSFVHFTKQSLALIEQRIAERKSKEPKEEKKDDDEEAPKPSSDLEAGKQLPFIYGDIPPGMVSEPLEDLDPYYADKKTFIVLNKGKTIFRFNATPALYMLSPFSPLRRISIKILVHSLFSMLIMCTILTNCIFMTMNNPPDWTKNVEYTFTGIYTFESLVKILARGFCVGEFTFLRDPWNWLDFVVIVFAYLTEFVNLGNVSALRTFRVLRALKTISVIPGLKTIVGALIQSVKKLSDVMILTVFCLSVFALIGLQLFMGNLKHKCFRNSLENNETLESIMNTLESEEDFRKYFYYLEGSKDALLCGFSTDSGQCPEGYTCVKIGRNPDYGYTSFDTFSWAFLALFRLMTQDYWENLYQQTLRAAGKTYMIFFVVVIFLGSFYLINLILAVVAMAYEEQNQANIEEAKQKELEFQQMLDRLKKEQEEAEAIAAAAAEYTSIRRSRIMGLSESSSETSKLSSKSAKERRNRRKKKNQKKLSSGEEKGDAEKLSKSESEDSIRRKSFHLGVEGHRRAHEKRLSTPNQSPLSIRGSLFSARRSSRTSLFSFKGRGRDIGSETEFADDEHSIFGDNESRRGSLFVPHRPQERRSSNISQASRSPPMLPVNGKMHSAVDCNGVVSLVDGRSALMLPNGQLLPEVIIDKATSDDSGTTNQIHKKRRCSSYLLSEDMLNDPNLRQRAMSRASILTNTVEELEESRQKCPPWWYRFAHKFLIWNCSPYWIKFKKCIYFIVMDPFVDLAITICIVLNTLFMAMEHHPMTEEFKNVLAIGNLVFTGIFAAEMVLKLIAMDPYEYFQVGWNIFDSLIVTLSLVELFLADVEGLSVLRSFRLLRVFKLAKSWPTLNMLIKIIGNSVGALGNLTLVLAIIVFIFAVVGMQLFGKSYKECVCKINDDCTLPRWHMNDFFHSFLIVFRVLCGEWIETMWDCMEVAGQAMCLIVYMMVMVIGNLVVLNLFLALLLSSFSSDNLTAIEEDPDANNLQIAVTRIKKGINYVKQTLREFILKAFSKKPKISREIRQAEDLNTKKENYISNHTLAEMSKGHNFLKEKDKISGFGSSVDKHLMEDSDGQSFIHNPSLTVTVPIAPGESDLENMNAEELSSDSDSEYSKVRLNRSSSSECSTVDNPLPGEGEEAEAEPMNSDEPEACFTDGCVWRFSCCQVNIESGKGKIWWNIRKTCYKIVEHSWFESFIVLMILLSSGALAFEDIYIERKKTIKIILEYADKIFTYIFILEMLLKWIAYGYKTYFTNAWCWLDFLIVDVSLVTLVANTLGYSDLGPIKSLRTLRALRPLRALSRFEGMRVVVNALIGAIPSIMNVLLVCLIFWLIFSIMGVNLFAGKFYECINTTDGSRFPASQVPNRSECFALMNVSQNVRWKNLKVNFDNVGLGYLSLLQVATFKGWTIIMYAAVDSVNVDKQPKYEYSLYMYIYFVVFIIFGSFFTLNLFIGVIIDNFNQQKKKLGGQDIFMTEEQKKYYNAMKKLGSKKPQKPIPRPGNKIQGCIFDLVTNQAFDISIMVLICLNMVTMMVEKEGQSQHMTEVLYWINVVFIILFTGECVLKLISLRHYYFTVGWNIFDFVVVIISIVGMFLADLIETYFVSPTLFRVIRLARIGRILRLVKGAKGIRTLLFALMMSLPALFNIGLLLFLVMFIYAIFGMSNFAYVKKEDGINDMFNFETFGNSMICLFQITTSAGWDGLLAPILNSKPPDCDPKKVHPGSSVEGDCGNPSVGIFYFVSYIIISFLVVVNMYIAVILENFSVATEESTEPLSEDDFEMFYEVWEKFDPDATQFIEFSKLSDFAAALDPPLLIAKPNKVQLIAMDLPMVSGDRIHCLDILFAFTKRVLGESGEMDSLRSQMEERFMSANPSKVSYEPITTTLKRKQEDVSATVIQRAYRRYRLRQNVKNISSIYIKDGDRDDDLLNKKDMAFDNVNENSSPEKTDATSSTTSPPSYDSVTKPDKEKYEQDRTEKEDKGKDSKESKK
T1 sequence (Q07699 19-218, further chain): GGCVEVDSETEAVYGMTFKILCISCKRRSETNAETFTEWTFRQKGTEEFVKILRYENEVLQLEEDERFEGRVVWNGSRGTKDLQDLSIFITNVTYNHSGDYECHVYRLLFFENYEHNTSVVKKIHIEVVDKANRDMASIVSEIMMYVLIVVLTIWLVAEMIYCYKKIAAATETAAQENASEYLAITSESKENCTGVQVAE
T1 sequence (O60939 30-215, further chain): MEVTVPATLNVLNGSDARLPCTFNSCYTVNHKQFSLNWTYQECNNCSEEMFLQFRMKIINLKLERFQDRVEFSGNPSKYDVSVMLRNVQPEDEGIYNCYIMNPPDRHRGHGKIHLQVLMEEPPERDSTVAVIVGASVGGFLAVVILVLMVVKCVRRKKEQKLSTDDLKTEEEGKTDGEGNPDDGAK
T2 sequence (Q62968 whole entry): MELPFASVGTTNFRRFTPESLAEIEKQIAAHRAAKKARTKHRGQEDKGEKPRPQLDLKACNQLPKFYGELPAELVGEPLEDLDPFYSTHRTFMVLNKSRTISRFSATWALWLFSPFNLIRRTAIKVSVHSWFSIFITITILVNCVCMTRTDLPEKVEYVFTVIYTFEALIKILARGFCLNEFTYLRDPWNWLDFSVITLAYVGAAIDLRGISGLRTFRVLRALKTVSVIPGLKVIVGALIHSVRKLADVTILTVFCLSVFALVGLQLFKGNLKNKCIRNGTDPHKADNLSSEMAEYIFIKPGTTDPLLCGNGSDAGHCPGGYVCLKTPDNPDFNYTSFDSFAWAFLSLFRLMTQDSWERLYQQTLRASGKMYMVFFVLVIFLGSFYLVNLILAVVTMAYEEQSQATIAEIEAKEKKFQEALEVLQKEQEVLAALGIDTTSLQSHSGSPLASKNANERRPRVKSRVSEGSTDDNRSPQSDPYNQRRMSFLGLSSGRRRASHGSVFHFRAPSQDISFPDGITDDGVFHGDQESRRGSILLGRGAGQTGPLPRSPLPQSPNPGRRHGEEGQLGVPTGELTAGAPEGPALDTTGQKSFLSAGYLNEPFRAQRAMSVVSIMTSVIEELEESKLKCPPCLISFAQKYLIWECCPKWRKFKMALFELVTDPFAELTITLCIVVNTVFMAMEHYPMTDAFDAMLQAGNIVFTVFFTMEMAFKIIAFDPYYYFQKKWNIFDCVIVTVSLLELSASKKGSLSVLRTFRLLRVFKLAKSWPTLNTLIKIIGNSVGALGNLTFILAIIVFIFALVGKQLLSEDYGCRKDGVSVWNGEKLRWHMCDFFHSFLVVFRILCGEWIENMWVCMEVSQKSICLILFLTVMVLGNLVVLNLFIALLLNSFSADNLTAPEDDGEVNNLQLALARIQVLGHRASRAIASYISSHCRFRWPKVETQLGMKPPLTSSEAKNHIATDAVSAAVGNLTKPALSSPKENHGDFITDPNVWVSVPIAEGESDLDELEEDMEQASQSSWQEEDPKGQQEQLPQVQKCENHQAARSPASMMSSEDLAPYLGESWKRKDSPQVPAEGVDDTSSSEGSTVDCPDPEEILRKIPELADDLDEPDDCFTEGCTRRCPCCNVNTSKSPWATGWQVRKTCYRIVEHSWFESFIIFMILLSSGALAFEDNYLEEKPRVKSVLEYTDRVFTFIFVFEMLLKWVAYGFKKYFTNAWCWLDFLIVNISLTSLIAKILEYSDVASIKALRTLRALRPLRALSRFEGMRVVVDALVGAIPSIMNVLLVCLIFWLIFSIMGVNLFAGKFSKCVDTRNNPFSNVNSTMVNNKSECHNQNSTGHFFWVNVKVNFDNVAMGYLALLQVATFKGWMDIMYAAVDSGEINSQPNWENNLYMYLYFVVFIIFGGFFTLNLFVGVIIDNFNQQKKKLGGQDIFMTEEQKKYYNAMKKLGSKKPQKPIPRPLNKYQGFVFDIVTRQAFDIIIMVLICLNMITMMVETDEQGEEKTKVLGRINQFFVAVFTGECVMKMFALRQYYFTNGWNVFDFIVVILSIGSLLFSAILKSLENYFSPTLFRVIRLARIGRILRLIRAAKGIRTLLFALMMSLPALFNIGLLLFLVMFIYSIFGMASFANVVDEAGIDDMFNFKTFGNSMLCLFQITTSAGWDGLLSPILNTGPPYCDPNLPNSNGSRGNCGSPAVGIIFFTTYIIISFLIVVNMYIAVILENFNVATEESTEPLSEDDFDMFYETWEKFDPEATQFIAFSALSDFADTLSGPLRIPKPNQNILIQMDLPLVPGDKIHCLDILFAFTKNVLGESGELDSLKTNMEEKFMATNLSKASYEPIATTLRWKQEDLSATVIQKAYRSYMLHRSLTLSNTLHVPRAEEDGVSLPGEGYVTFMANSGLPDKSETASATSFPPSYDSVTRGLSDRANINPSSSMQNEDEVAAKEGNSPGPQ

As to `NC1=N[C@H](O)[C@H]2[C@H]3O[C@]4(O)O[C@@H]([C@@H](O)[C@@]2(N1)[C@@H]4O)[C@]3(O)CO` [TTX, tetrodotoxin], the “inhibition of rpTx1-evoked persistent currents” value in assay [1] is reported as “completely inhibited”.

Take `CC[C@H](C)[C@H](NC(=O)[C@@H](N)CCCCN)C(=O)N[C@@H](Cc1ccccc1)C(=O)N[C@@H](CCSC)C(=O)N[C@@H](CCCCN)C(=O)O` [KIFMK]: in assay [2], the “IC50 for rNav1.4 and hNav1.5 relative to that for rNav1.8” value is “two time smaller”.
